Reference: patent publication US7989466B2, “Methods to inhibit or augment an inflammatory response” (Cambridge Enterprise Limited, priority 1999, dated 2011)
Read-outs that look alike come from different tables or passages of the source. Marks after values point to notes of the source that are not given here. One block for each compound: values may come before it. Positions of bridges follow the written chain, without caps; N, C: chain ends. Non-standard residues stand in square brackets, D forms with d. Residues, ends and D or L forms follow the SMILES beside them. No end group written: not given here.

Assays:
[1] = system: MCP-1 induced THP-1 migration; experiment: THP-1 trans-well migration assay, MCP-1 as chemoattractant; type: cell-based, human; details: for % inhibition at 100 μM versus MCP-1, THP-1 migration: agent with the cells, n.s. = no statistically significant inhibition
Summary of the method: (§1)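 5×10^4 THP-1 cells with serially diluted peptide in upper chamber, 5 µm filter, recombinant human chemokine 50 ng/ml (5.9 nM) in lower chamber. Incubated 4 h at 37 °C. Migrated cells counted by MTT staining, A595 read against a THP-1 standard curve.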

[2] = system: MIP1α induced THP-1 migration; experiment: THP-1 trans-well migration assay, MIP1α as chemoattractant; type: cell-based, human; details: for % inhibition at 100 μM versus MIP1α, THP-1 migration: n.s. = no statistically significant inhibition
Summary of the method: as §1

[3] = system: chemokine-induced THP-1 migration; experiment: THP-1 trans-well migration assay, panel of chemokines (MCP-1, MIP1α, IL-8, SDF1α); type: cell-based, human; details: for effect on THP-1 migration induced by the chemokine panel, in words: IL-8, SDF1α; for CC SPECIFICITY: average inhibitory ED50 versus SDF1 and IL8 divided by average inhibitory ED50 versus MCP-1 and MIP1α
[4] = molecular target: T1, Duffy Antigen Receptor for Chemokines (DARC) (Homo sapiens, UniProt Q16570); experiment: DARC binding: competition with 125I-MCP-1 on red blood cells; details: for DUFFY SELECTIVITY, peptide 2 family: ka for binding to red blood cells divided by the ka for binding THP-1 cells
T1 sequence (Q16570 1-336): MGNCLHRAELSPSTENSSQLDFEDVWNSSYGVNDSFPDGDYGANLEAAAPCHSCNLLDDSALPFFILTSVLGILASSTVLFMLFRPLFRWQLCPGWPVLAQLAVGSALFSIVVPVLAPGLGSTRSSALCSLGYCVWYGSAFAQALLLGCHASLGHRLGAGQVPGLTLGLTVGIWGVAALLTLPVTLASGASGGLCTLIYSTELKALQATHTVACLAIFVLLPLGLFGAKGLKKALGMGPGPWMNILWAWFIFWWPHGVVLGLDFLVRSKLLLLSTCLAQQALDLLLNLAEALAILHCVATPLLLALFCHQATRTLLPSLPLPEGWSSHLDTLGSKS

[5] = system: IL8 induced THP-1 migration; experiment: THP-1 trans-well migration assay, IL-8 as chemoattractant; type: cell-based, human; details: for % inhibition at 100 μM versus IL8, THP-1 migration: n.s. = no statistically significant inhibition
Experimental: To determine whether an agent inhibits a chemokine-induced activity, such as macrophage recruitment, varying amounts of the agent are mixed with cells in the presence of a known chemoattractant. For example, a range of known concentrations of an agent, e.g., a chemokine peptide, is incubated with a defined number (e.g., 10^4-10^6) of human THP-1 monocyte cells in individual wells of the top compartment of a trans-well plate. Chemokine (such as MCP-1, MIP1α, IL8 or SDF-1α), at a concentration known to cause significant migration of THP-1 cells in the trans-well migration assay, is placed in the lower compartment (FIG. 1). Cells are then incubated at 37° C. for a period sufficient to allow migration, e.g., 4 hours. After incubation, the cells are gently removed from the top of the filter with a pipette, 20 μl of 20 mM EDTA in simple PBS is added into each top well, and incubated for 20 minutes at 4° C. The filter is carefully flushed with media using a gentle flow, and removed. A standard curve consisting of a two-fold dilution series of THP-1 cells (in 29 μl) is prepared to accurately quantify the number of cells that have migrated. Migrated cells are stained with 3 μl of MTT stock dye solution which is added directly into each well (5 mg/ml in RPMI-1640 without phenol red, Sigma Chemical Co.) and incubated at 37° C. for 4 hours. The media is carefully aspirated from each well, and the converted dye is solubilized by 20 μl of DMSO. Absorbance of converted dye is measured at a wavelength of 595 nm using an ELISA plate reader. The number of migrated cells in each well is then determined by interpolation of the standard curve (see also Imai et al., J. Biol. Chem., 272, 15036 (1997)).
For this assay, THP-1 cells were maintained at a density of 4×10^5 cells per ml in RPMI-1640 supplemented with 10% fetal calf serum+20 μM 2-mercaptoethanol. Chemotaxis was induced in a 96-well disposable chemotaxis chamber fitted with a […] polycarbonate filter (PVP free, ChemoTX, Neuroprobe Inc., Cabin John). Twenty-nine μl of chemoattractant (recombinant human chemokine; 50 ng/ml, i.e., 5.9 nM) or control (100 ng/ml TGFβ) was added to the lower compartment of each well. The framed filter was aligned with the holes in the corner of the filter frame and placed over the wells. Five×10^4 THP-1 cells in 25 μl of RPMI-1640 were added to the upper compartment. Peptides were dissolved in Milli Q water and then serially diluted in culture medium. In most cases, the serially diluted peptides were added to the upper compartment of the chemotaxis chamber. The chamber was incubated at 37° C. in a humidified atmosphere of 5% CO2 for 4 hours.
After incubation, the cells were gently removed from the top of the filter with a pipette, 20 μl of 20 mM EDTA in PBS was added into each top well, and the mixture was incubated for 20 minutes at 4° C. The filter was then carefully flushed with media using a gentle flow, and removed. A standard curve was prepared to accurately quantify the number of THP-1 cells that had migrated. The curve was based on a two-fold dilution series of THP-1 cells (top standard 100,000 cells in 29 μl). Cells which had migrated, and in separate wells, the cells in the standards, were stained with 3 μl of MTT stock solution which was added directly into each well (5 mg/ml in RPMI 1640 without phenol red, Sigma Chemical Co.) and incubated at 37° C. for 4 hours. The media was carefully aspirated from each well, and the converted dye was solubilized by 20 μl of DMSO. Absorbance of converted dye was measured at a wavelength of 595 nm using an ELISA plate reader. The number of cells that had migrated in each well was determined by interpolation of the standard curve.

[6] = system: TGFβ1 induced THP-1 migration; experiment: THP-1 trans-well migration assay, TGFβ1 as non-chemokine control; type: cell-based, human; details: for ED50 versus TGFβ1, inhibition of THP-1 migration: n.s. = no statistically significant inhibition (p > 0.05); for % inhibition at 100 μM versus TGFβ1, THP-1 migration: n.s. = no statistically significant inhibition
Experimental: Any method suitable for counting cells can be used, for example, counting with a hemocytometer, incubation of the cells with MTT (see above), or FACS analysis. A negative control assay is also performed, using TGF-β or another non-chemokine chemoattractant (e.g., IL1β or TNFα). To assess whether the agent is cytotoxic, the same concentrations of agent are incubated with THP-1 cells. Agents which 1) are not cytotoxic at levels which inhibit migration, 2) are ineffective at inhibiting the negative control-induced migration, and 3) reduce or inhibit chemokine-induced THP-1 migration, are agents which fall within the scope of the invention.
Chemotaxis was induced in a 96-well disposable chemotaxis chamber fitted with a […] polycarbonate filter (PVP free, ChemoTX, Neuroprobe Inc., Cabin John). […] The framed filter was aligned with the holes in the corner of the filter frame and placed over the wells. […] Peptides were dissolved in Milli Q water and then serially diluted in culture medium. In most cases, the serially diluted peptides were added to the upper compartment of the chemotaxis chamber. The chamber was incubated at 37° C. in a humidified atmosphere of 5% CO2 for 4 hours.
After incubation, the cells were gently removed from the top of the filter with a pipette, 20 μl of 20 mM EDTA in PBS was added into each top well, and the mixture was incubated for 20 minutes at 4° C. The filter was then carefully flushed with media using a gentle flow, and removed. […] The curve was based on a two-fold dilution series of THP-1 cells (top standard 100,000 cells in 29 μl). […] The media was carefully aspirated from each well, and the converted dye was solubilized by 20 μl of DMSO.

[7] = n.s. = no statistically significant inhibition (p > 0.05)
[8] = ns = not significantly different from control

Compound: CC[C@@H](C)[C@H]1NC(=O)[C@@H](CCC(N)=O)NC(=O)[C@H](N)CSSC[C@H](C(N)=O)NC(=O)[C@@H](CC(C)C)NC(=O)[C@@H](CC(=O)O)NC(=O)[C@H]2CCCN2C(=O)[C@@H](CCCCN)NC(=O)[C@@H](CCC(N)=O)NC(=O)[C@@H](CCCCN)NC(=O)[C@@H](Cc2c[nH]c3ccccc23)NC1=O (H-[dC][dQ][dI][dW][dK][dQ][dK][dP][dD][dL][dC]-NH2; disulfide 1-11; N-terminus assumed)
IC50 ([1]; read-out: MCP-1 inhibitory activity in the THP-1 transwell assay): 0.005 to 0.1 µM
shift of the MIP-1α dose response curve to higher concentrations ([2]; sub-maximal dose of inhibitor in the upper chamber): 5-100 fold
effect on THP-1 migration induced by the chemokine panel, in words ([3]; MCP-1, MIP1α): inhibited THP-1 cell migration induced by MCP-1, MIP1α, IL-8, and SDF1, with very similar ED50s
Kd [4]: 90 µM

Compound: C=CCCCCCCCCC(=O)N[C@H]1CCC(=O)NC1=O [A-I (NR58.4), [3S]-3-(undec-10-enoylamino)piperidine-2,6-dione]
EC50 ([1]; listed as NR58.4 (A-I), read-out: ED50 versus MCP-1 induced chemotaxis of THP-1): 0.002 µM
EC50 ([2]; Homo sapiens, THP-1, read-out: ED50, MIP1α chemotaxis assay): 0.0002 µM
EC50 ([5]; Homo sapiens, THP-1, read-out: ED50, IL-8 chemotaxis assay): < 0.01 µM

EC50 ([3]; footnote f, KQK MCP-1, SEE MIP1α, KLK SDF1, KEN IL8, read-out: ED50 of a tripeptide against the one chemokine it is highly specific for): 6 µM
Compound: NCCCC[C@H](NC(=O)[C@H](CCC(N)=O)NC(=O)[C@@H](N)CCCCN)C(=O)O [KQK]
percentage inhibition of migration induced by MCP-1 ([1]; tripeptide at 100 μM, mean ± range of two experiments, dash = no statistically significant reduction in migration): 95 ± 8^b %
ED50 versus MIP1α, inhibition of THP-1 migration [2, 7]: n.s.
ED50 versus IL8, inhibition of THP-1 migration [5, 7]: n.s.
ED50 versus TGFβ1, inhibition of THP-1 migration [6]: n.s.
specificity for the cognate chemokine over all the other chemokines tested ([3]; KQK MCP-1, SEE MIP1-α): more than 100 fold
Chemokine antagonist ([3]; active against at least one of IL-8, SDF-1α, MCP-1, MIP1α): +++++
CC SPECIFICITY [3]: >100

Compound: EICADPKQKWVQ [peptide 3(1-12)[MCP-1]]
% inhibition at 100 μM versus MCP-1, THP-1 migration ([1]; 100 μM): > 99%
% inhibition at 100 μM versus MCP-1, THP-1 migration ([1]; 100 μM, listed as Peptide 3 (SEQ ID NO: 1)): 112%
% inhibition of MCP-1 induced migration at 100 μM, peptide with the chemokine in the lower compartment ([1]; 100 μM, lower compartment): 17%
EC50 ([1]; agent with the cells in the upper compartment, n.s. = no statistically significant inhibition (p > 0.05), read-out: ED50 versus MCP-1, inhibition of THP-1 migration): 8 ± 1 µM
% inhibition at 100 μM versus MIP1α, THP-1 migration [2]: 99%
EC50 ([2]; n.s. = no statistically significant inhibition (p > 0.05), read-out: ED50 versus MIP1α, inhibition of THP-1 migration): 8 ± 1 µM
% inhibition at 100 μM versus IL8, THP-1 migration [5]: 103%
EC50 ([5]; n.s. = no statistically significant inhibition (p > 0.05), read-out: ED50 versus IL8, inhibition of THP-1 migration): 14 ± 1 µM
% inhibition at 100 μM versus TGFβ1, THP-1 migration [6]: n.s.
ED50 versus TGFβ1, inhibition of THP-1 migration [6]: n.s.
% inhibition at 100 μM of migration induced by any of the chemokines tested ([3]; 100 μM, THP-1): > 99%
EC50 ([3]; average inhibitory ED50 for inhibition of THP-1 migration induced by each of the chemokines, read-out: AVERAGE ED50): 10 µM
CC SPECIFICITY [3]: 1.5
selectivity ratio (CC versus CXC chemokines) ([3]; greater than 1 = greater inhibition of CC chemokines relative to CXC chemokines): 1.5
DUFFY SELECTIVITY (DARC specificity ratio) ([4]; estimated ka for binding to red blood cells divided by average inhibitory ED50 versus each of the chemokines): 1.0

Compound: SYRRITSSKCPKEAV [peptide 2(1-15)[MCP-1]]
% inhibition at 100 μM versus MCP-1, THP-1 migration ([1]; 100 μM, listed as Peptide 2 (SEQ ID NO: 3)): n.s.
% inhibition at 100 μM versus MCP-1, THP-1 migration ([1]; 100 μM, listed as Peptide 2[MCP-1]): 19%
ED50 versus MCP-1, inhibition of THP-1 migration ([1]; agent with the cells in the upper compartment, n.s. = no statistically significant inhibition (p > 0.05)): n.s.
MCP-1 ED-50 [1, 8]: ns
% inhibition at 100 μM versus MIP1α, THP-1 migration [2]: n.s.
ED50 versus MIP1α, inhibition of THP-1 migration [2, 7]: n.s.
MIPIa ED-50 [2, 8]: ns
% inhibition at 100 μM versus IL8, THP-1 migration [5]: n.s.
ED50 versus IL8, inhibition of THP-1 migration [5, 7]: n.s.
% inhibition at 100 μM versus TGFβ1, THP-1 migration [6]: n.s.
ED50 versus TGFβ1, inhibition of THP-1 migration [6]: n.s.
effect on THP-1 migration induced by the chemokine panel, in words ([3]; MCP-1, MIP1α): no significant effect
Kd ([4]; association (affinity) constant for DARC, red blood cells): 100 µM
Kd ([4]; association constant / affinity for DARC, red blood cells): < 0.5 µM
DUFFY SELECTIVITY, peptide 2 family [4]: 0.1-0.2
DUFFY SELECTIVITY, peptide 2 family ([4]; listed as Pep2[MCP1]): 0.18^d
